Columns and labels:
[1] = target: T1, 6-Phosphoglucosamine synthetase (GlmS) (Staphylococcus aureus, UniProt Q5HE49); test: SPR with purified GlmS; also thermal stability shift and enzymatic inhibition (IC50 […]); assay type: binding
T1 sequence (Q5HE49 2-601): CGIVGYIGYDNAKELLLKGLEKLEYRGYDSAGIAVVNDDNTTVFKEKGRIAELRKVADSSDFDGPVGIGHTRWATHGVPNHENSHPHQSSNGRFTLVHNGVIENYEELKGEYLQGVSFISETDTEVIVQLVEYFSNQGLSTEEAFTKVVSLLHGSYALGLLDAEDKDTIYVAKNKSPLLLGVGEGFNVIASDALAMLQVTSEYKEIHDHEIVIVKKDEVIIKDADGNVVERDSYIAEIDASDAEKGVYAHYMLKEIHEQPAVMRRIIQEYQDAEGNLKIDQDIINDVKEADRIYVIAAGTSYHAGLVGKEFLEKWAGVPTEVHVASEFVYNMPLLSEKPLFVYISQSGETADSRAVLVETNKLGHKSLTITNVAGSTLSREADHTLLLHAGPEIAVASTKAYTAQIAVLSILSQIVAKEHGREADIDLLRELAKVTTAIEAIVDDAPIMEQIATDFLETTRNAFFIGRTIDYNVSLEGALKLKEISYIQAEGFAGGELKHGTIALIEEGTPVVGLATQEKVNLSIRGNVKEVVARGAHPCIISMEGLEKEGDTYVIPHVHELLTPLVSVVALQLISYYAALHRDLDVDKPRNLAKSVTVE

[2] = target: T1, 6-Phosphoglucosamine synthetase (GlmS); test: in vitro GlmS enzymatic assay, positive control; assay type: biochemical

Row | Structure (SMILES) | Kd [1] [nM] | in vitro GlmS enzymatic assay, positive control [2]
1 | O=C(c1ccc(C(F)(F)F)cc1O)c1[nH]c(Cl)c(Cl)c1-n1c(C(=O)c2ccc(C(F)(F)F)cc2O)cc(Cl)c1Cl [MA-D1] | 390 | –
2 | COC(=O)/C=C/C(=O)NC[C@H](N)C(=O)O [FMDP, N^3-(4-metoxyfumaroyl)-(S)-2,3-diaminopropanoic acid] | – | The reported FMDP was used as a positive control.
